Converted amounts (≈) assume the structure as drawn. The source made the active and inactive calls. The calls are words filed in the database; no cut-off is given here.
Key:
[1] = biological target: T1, 3-oxoacyl-[acyl-carrier-protein] synthase 3 (Escherichia coli, UniProt C3TDZ2); assay: Inhibition of Escherichia coli FabH
T1 sequence (C3TDZ2 whole entry): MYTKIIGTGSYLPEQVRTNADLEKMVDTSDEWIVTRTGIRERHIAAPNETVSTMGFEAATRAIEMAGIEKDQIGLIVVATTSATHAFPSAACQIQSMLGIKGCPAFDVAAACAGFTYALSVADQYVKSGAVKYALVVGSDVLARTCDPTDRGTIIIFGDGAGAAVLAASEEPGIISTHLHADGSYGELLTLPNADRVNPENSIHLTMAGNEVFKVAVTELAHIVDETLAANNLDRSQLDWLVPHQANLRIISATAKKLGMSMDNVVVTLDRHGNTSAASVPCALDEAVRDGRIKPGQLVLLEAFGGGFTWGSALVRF

[2] = biological target: T2, Beta-ketoacyl-ACP-synthase III (Plasmodium falciparum) (UniProt O77078); assay: Inhibition of Plasmodium falciparum D6 KASIII at 100 uM
T2 sequence (whole entry): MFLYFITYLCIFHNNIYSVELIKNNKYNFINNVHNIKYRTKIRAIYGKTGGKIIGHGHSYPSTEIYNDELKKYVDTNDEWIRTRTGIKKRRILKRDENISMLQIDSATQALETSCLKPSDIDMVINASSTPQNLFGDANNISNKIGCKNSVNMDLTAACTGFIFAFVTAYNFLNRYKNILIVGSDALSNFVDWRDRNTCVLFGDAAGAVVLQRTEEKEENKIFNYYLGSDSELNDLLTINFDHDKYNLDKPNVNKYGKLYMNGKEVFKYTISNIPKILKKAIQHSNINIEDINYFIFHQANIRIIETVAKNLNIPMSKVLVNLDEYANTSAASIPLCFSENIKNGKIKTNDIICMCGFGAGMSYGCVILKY

[3] = biological target: T3, Mycobacterial beta-ketoacyl-[acyl-carrier-protein] synthase III (Mycobacterium tuberculosis) (UniProt P9WNG3); assay: Inhibition of Mycobacterium tuberculosis FabH at 100 uM
T3 sequence (whole entry): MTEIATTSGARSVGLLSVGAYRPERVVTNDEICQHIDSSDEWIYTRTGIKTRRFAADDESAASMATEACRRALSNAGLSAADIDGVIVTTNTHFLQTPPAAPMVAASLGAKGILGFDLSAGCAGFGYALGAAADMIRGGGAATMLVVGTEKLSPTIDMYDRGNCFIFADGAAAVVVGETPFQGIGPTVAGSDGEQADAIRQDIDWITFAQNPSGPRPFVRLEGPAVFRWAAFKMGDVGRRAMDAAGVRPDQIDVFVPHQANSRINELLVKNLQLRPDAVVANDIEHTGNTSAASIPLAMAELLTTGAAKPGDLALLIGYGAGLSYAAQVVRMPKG

Plasmodium falciparum = assay: Antimalarial activity against Plasmodium falciparum D6; assay type: functional, organism-based
Escherichia coli [4] = assay: Antibacterial activity against Escherichia coli expressing FabH; assay type: functional
Escherichia coli [5] = assay: Antibacterial activity against Escherichia coli; assay type: functional

| SMILES | IC50 [1] [µM] | Activity [2] | Activity [3] | IC50 (Plasmodium falciparum) [µM] | MIC (Escherichia coli [4]) [µg/mL] | MIC (Escherichia coli [5]) [µg/mL] |
| --- | --- | --- | --- | --- | --- | --- |
| O=C1N(Cc2ccc(Oc3ccccc3)cc2)CCS1(=O)=O | 0.9 | inactive | inactive | 49.4 |  |  |
| O=C1N(Cc2ccccc2)CCS1(=O)=O | 1.1 | inactive | inactive | 67.6 | 6.6 (≈ 29.3 µM) | 6.6 (≈ 29.3 µM) |
| O=C1SCCN1Cc1cccnc1 | 20.7 | inactive | inactive | 78.4 |  |  |
| O=C1N(Cc2ccc(Oc3ccc(C4CCCC4)cc3)cc2)CCS1(=O)=O | 2.4 | inactive | inactive | 10.8 |  |  |
| O=C1N(CCc2ccccc2)CCS1(=O)=O | 1.9 | inactive | inactive | 21.6 |  | 16.5 (≈ 69 µM) |
| O=C1SCCN1Cc1ccccc1 | 13.7 | inactive | inactive | 90.9 |  |  |
| S=C1SCCN1Cc1ccc(Oc2ccc(C3CCCC3)cc2)cc1 | 17.7 | inactive | inactive | 5.3 |  |  |
| S=C1SCCN1Cc1ccc(Oc2ccccc2)cc1 | > 100 | inactive | inactive | 55.6 |  |  |
| CCCN1CCS(=O)(=O)C1=O | > 100 | inactive | inactive | > 100 |  |  |
| S=C1SCCN1CCc1ccccc1 | > 100 | inactive | inactive | 55.5 |  |  |
| CN1CCSC1=S | > 100 | inactive | inactive | > 100 |  |  |
| CCCN1CCSC1=S | > 100 | inactive | inactive | > 100 |  |  |
| O=C1SCCN1Cc1ccc(Oc2ccccc2)cc1 | 10.9 | inactive | inactive | 67.1 |  |  |
| O=C1SCCN1Cc1ccc(Oc2ccc(C3CCCC3)cc2)cc1 | 14.4 | inactive | inactive | 11.1 |  |  |
| S=C1SCCN1Cc1cccnc1 | > 100 | inactive | inactive | 73.4 |  |  |
| S=C1SCCN1Cc1ccccc1 | > 100 | inactive | inactive | 61.6 |  |  |
| CN1CCS(=O)(=O)C1=O | > 100 | inactive | inactive | > 100 |  |  |

Reference: ChEMBL document CHEMBL1146351, “Synthesis and biological evaluation of thiazolidine-2-one 1,1-dioxide as inhibitors of Escherichia coli beta-ketoacyl-ACP-synthase III (FabH)” (Bioorg Med Chem Lett, 2007)
